Results from patent US5393744A, “Glucosyl phosphotriesters of thymidine” (Institut Pasteur, priority 1988, dated 1995).
Read-outs that look alike come from different tables or passages of the source.

Experiments:
[1] = system: human T lymphocytes; test: Cytotoxicity of the products for human T lymphocytes; format: cell-based
Protocol: (§1) Each product was dissolved in DMSO at a concentration of 10^-3 M (stock solution), then in the culture medium immediately before use. The solution thus obtained was sterilized by filtration on a 0.22μ Millipore, then successive dilutions were made in the culture medium.
The cultures of human T lymphocytes are maintained in the medium RPMI 1640 containing 10% fetal calf serum (Seromeal), 1% of glummine (Gibco), 1% of antibiotics (PSN, Gibco), 10% of interleukin II (Biotest), 2 μg/ml of polybrene (Sigma) and a 1/2500 dilution of α-human semm-interferon. This medium is called complete medium.
The cytotoxicity of the products was studied on human T lymphocytes obtained from peripheral blood of a sero-negative donor. Prior to the treatment, these lymphocytes are stimulated by phytohemagglutinin p (pHAp) (Difco) for 3 days.
a) Study of the cytotoxicity of the products for the T cells.
10^6 lymphocytes stimulated by pHAp were treated for 10 days by increasing doses of the product (10^-5 M; 5×10^-6 M; 10^-6 M). The product was added at each cell passage carried out every 3 or 4 days. At each passage, the cells were counted after staining with trypan blue then resuspended at 10^6 cells per ml in the complete medium containing or not increasing doses of the product. This experiment was carried out in a plate with 24 wells (Munc).

[2] = system: HIV-1 virus; test: Action of the products on the cytopathogenic effect of the HIV-1 virus in MT4 cells; format: cell-based, HIV-1 virus (LAV strain); details: for minimal effective concentration: Human immunodeficiency virus 1, MT4, 168 h
Protocol: as §1
The line of MT4 cells is cultivated at a concentration of 3×10^5 cells/ml in a RPM1640 medium containing 10% of fetal calf serum, 1% of antibiotics and 1% of glummine.
The action of the products on the cytopathogenic effect of the HIV-1 virus was studied with the aid of the line of MT4 cells. This line is a line of human T cells transformed by the HTLV-1 virus. These cells are particularly sensitive to the HIV-1 virus since 6 to 7 days after superinfection by tiny quantities of HIV-1 virus, they show a considerable cytopathogenic effect leading to the death of 10 to 80% of the cells. The cytopathogenic effect is directly correlated with the infection of the cells by the virus, with its intracellular replication and with the expression of the viral antigens by the cells. An inhibition of this effect thus corresponds to an inhibition of the multiplication of the HIV-1 virus.
It is a question of supernatants of lymphoblastoid T cells (CEM line) infected by the HIV-1 virus (LAV strain). The activity of the undiluted viral preparation used for the human lymphocytes was 20000 cpm/ml.
d) Action of the products on the cytopathogenic effect of the HIV-1 virus in the case of the MT4 cells. Study of the treatment after viral absorption.
The MT4 cells were infected by 100 μl of HIV-1 virus for 3.10^5 cells in a volume of 1 ml. […]
At day +3, the cell suspensions were restored to 3.10^5 cells/ml after dilution with fresh medium. The product was added at the corresponding doses.
At day +7, the cytopathogenic effect was evaluated with the microscope after staining with trypan blue.

[3] = system: HIV-1 virus; test: Infection of activated lymphocytes by the lysates of infected macrophages (co-culture, reverse transcriptase activity); format: cell-based
Protocol: The drugs 6651, AZT, 6714 and ddT were diluted in DMSO.
The virus HIV-1 utilized is derived from a culture supernatant of CEM-LAV 1 cells; these latter are maintained by the addition at each passage (every 3 or 4 days) of uninfected CEM cells. The titre of the virus in the clarified culture supernatant is higher than 10^6 cpm/ml in reverse transcriptase activity and 10^3 infectious units/ml on lymphocytes of sero-negative donors.
The lymphocytes were isolated from the peripheral blood of sero-negative donors on a Ficoll^R gradient (MSL, Eurobio). The lymphocytes thus obtained were stimulated with the phytohemaglutinin p(PHA-p) for 3 days before their utilization.
The lymphocytes are cultivated in RPMI 1640 medium, supplemented with 10% of fetal calf serum, 10% of interleukin 2, 2 μg/ml of polybrene, 1% of glutamine, 1% of antibiotics.
The macrophages were obtained from a deleucocytation pocket. The mononucleated cells were separated on a Ficoll^R gradient. The cells were adjusted to 50.10^6 cells/ml in the RPMI 1640 medium (MBA) containing 20% fetal calf serum (Flow), 10 mM Hepes (Sigma), 1% of PSN and 1% of glutamine (Gibco). After 1 h of incubation at 4° C. with gentle shaking, the macrophages agglutinate among themselves. The agglutinated macrophages are sedimented for 15 mn at 4° C. The supernatant containing an enrichment in lymphocytes was removed and the pellet enriched in macrophages was diluted to 5.10^6 cells/ml in the medium previously described. The cell suspension was then placed in Petri dishes of 60 mm diameter and placed at 37° C. for 1 h 30. The unattached cells are removed and the washed cell carpet was then detached with a scraper. The cells thus recovered were used directly for the study.
For this study, the production of HIV-1 virus by infected macrophages in the presence or absence of the drugs 6714 or ddT and 6651 or AZT were monitored either in continuous culture for at least 30 days or after lysis of the macrophages at day +14 and infection of lymphocytes by this lysate.
The quantity of cells placed in culture and the conditions of infection are identical with those previously described.
At day 14 after infection, the macrophages were lysed by two successive freezings to -20° C. and thawings at 37° C. The lysate recovered was then utilized as inoculum to infect 3.10^6 activated lymphocytes derived from a sero-negative donor. After 1 h of absorption, the lymphocytes were adjusted to 10^6 cells per ml and the drugs were added at the concentrations corresponding to those of the lysate.
The lymphocytes were subcultured every 3 or 4 days and an assay of the reverse transcriptase was carried out starting from the culture supernatant at each passage.
3) Measurement of the reverse transcriptase activity
The reverse transcriptase activity is assayed starting from 1 ml of culture supernatant concentrated 100 times by ultra-centrifugation for 5 mn at 95.000 rpm (Rotor TL 100^R Beckman).
The pellet is resuspended in 10 μl of NTE Triton^R ×100 0.1%.
After 1 h at 37° C., the acid-insoluble products are precipitated by 20% trichloroacetic acid, filtered onto 0.45μ Millipore^R and the B radioactivity is measured with the aid of a Kontron scintillation counter.

**Q.** Which “effect on cell multiplication” value ([1]; same doses, 3 days) does the source give for Cc1cn([C@H]2CC[C@@H](COP(=O)(O)OC[C@H]3OC(O)[C@H](O)[C@@H](O)[C@@H]3O)O2)c(=O)[nH]c1=O (some centres unmarked) [compound 6714, 6-glucosyl 5'-(3'-deoxy)-thymidinyl phosphate] here?
**A.** Its value is “no effect is observed on cell multiplication”.

**Q.** And the “Cytopathogenic Effect at Day +7” value ([2]; 5 × 10^-6 M, Experiment No. 2)?
**A.** Its value is “+ (100% death of the cells at day +7)”.

**Q.** What about the “Cytopathogenic Effect at Day +7” value ([2]; 10^-5 M, Experiment No. 2) of the same compound?
**A.** Its value is “-”.

**Q.** What about the “Cytopathogenic Effect at Day +7” value ([2]; 10^-6 M, Experiment No. 2) of the same compound?
**A.** Its value is “+ (100% death of the cells at day +7)”.

**Q.** What about the minimal effective concentration ([2]; read-out: concentration at which the product inhibits the cytopathogenic potency of the virus) of the same compound?
**A.** The minimal effective concentration was 10 µM.

**Q.** And the “viral production by activated lymphocytes with lysates of infected treated macrophages (general statement)” value ([3]; lysate at day 14)?
**A.** The value was “make it possible to obtain a vital production by activated lymphocytes”.

**Q.** And the “viral production by activated lymphocytes, compared to untreated lysate” value ([3]; whatever the concentration tested (5.10^-5 M, 10^-5 M))?
**A.** Its value is “comparable to the untreated lysate”.

**Q.** What about the “multiplication of the HIV-1 virus in the macrophages” value ([3]; whatever the concentration tested, 5.10^-6 M or 10^-5 M) of the same compound?
**A.** Its value is “there is multiplication of the HIV-1 virus in the macrophages, but the escape of the virus seems to be blocked”.

**Q.** CCCCCCCCCCCCCCCCOP(=O)(OC[C@H]1OC(O)[C@H](O)[C@@H](O)[C@@H]1O)OC[C@H]1O[C@@H](n2cc(C)c(=O)[nH]c2=O)C[C@@H]1N=[N+]=[N-] (some centres unmarked) [compound 6651, 6-glucosyl hexadecyl 5'-(3'-azido) thymidinyl phosphate] was tested. Which “effect on the growth of T cells” value ([1]; treatment of 10 days, at the doses used (FIG. 1)) did it give?
**A.** Its value is “without significant effect on the growth of T cells”.

**Q.** What about the “Cytopathogenic Effect at Day +7” value ([2]; 5 × 10^-6 M, Experiment No. 1) of the same compound?
**A.** Its value is “-”.

**Q.** What about the “Cytopathogenic Effect at Day +7” value ([2]; 5 × 10^-6 M, Experiment No. 2) of the same compound?
**A.** The value was “+ (100% death of the cells at day +7)”.

**Q.** What about the “Cytopathogenic Effect at Day +7” value ([2]; 5 × 10^-7 M, Experiment No. 1) of the same compound?
**A.** Its value is “+ (100% death of the cells at day +7)”.

**Q.** And the “Cytopathogenic Effect at Day +7” value ([2]; 5 × 10^-7 M, Experiment No. 2)?
**A.** The value was “+ (100% death of the cells at day +7)”.

**Q.** What about the “Cytopathogenic Effect at Day +7” value ([2]; 10^-5 M, Experiment No. 1) of the same compound?
**A.** Its value is “-”.

**Q.** What about the “Cytopathogenic Effect at Day +7” value ([2]; 10^-5 M, Experiment No. 2) of the same compound?
**A.** The value was “-”.

**Q.** What about the “Cytopathogenic Effect at Day +7” value ([2]; 10^-6 M, Experiment No. 1) of the same compound?
**A.** Its value is “-”.

**Q.** What about the “Cytopathogenic Effect at Day +7” value ([2]; 10^-6 M, Experiment No. 2) of the same compound?
**A.** The value was “+ (100% death of the cells at day +7)”.

**Q.** What about the minimal effective concentration ([2]; first experiment, MT4 cells, read-out: concentration at which the product inhibits the cytopathogenic effect) of the same compound?
**A.** Its minimal effective concentration is 1 µM.

**Q.** And the minimal effective concentration ([2]; second experiment, MT4 cells, read-out: concentration at which the product inhibits the cytopathogenic effect)?
**A.** The minimal effective concentration was 10 µM.

**Q.** And the “viral production on the lymphocytes with the lysates of treated macrophages” value ([3]; 10^-5 M and 10^-6 M (FIG. 4c))?
**A.** The value was “no viral production is obtained on the lymphocytes”.

**Q.** What about the “multiplication of the HIV-1 virus at the interior of the macrophage” value ([3]; 10^-5 M and 10^-6 M, same result as AZT (no multiplication)) of the same compound?
**A.** Its value is “this same result is obtained”.

**Q.** And the “multiplication of the HIV-1 virus in the macrophages” value ([3]; 10^-7 M)?
**A.** The value was “there is multiplication of the HIV-1 virus in the macrophages, but the escape of the virus seems to be blocked”.

**Q.** What about the “viral production on the lymphocytes with the lysates of treated macrophages” value ([3]; 10^-7 M (FIG. 4c)) of the same compound?
**A.** Its value is “A low viral production is observed”.
